This is an account of results in patent US11034695B2, “Dopamine-β-hydroxylase inhibitors” (BIAL—PORTELA & Ca, S.A., priority 2016, dated 2021).

In one assay the target is T1, Dopamine beta hydroxylase activity in human plasma (Homo sapiens, UniProt P09172).
T1 construct: 125 μl of plasma (or saline for blank reaction or standard curve); tissue Instituto Português do Sangue Transplantação; host or cells: human plasma from healthy donors
T1 sequence (P09172 40-617 limits assumed): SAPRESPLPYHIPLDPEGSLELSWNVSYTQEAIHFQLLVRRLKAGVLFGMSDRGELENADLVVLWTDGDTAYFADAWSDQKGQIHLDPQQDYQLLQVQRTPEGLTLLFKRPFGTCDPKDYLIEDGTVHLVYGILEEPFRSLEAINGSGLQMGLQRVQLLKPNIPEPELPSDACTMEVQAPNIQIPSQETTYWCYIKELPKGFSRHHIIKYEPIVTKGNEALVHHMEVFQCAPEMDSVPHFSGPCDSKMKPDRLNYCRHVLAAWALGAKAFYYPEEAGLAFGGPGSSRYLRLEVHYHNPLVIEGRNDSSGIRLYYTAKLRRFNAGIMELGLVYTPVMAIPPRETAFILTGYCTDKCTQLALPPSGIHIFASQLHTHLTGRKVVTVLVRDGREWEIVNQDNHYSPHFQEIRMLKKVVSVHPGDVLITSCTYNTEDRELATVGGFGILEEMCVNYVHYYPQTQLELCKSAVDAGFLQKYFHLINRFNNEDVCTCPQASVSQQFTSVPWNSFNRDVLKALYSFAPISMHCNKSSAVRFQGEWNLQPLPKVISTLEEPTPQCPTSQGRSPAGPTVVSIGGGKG
In words: DβH activity in human plasma. Type of assay: biochemical. Particulars: 0.1 μM inhibitor; human plasma; numbers in brackets; read-out: DβH activity in % of Ctrl (0.1 μM), human plasma assay. On the procedure: Furthermore, the ability of a compound to inhibit DβH activity may be assessed in human plasma using the following assay. […]. Dopamine beta hydroxylase activity in human plasma was measured by the method previously developed (Nagatsu, T. and Udenfriend, S. Photometric assay of dopamine-β-hydroxylase activity in human blood. Clin. Chem. 18(9) 980-983, 1972) with minor modifications. Catalase, N-ethylmaleimide, tyramine, disodium fumarate, pargyline, sodium acetate, ascorbic acid, copper sulfate and octopamine were obtained from Sigma Chemical Co., St. Louis, Mo. 63178. Human plasma samples were obtained from healthy donors (Instituto Português do Sangue Transplantação, Centro Sangue Transplantação, Porto, Portugal). From date of collection, plasma was stored at −80° C. until use. Test compounds were initially prepared in dimethyl sulfoxide at a concentration of 10 mM and diluted in dimethyl sulfoxide to the required concentrations. Test compounds were further diluted in ultrapure water to a concentration 20-fold to that of the final concentration to be tested. Final concentrations of test compounds were 10, 100 and 1000 nM. The various reagents used to make up the incubation buffer were premixed and consisted of the following components: sodium acetate buffer (1 M, pH 5.0, 18 ml), sodium fumarate (0.2 M, 4.5 ml), ascorbic acid (0.2 M, 4.5 ml, freshly prepared), pargyline (20 mM, freshly prepared, 4.5 ml), N-ethylmaleimide (0.2 M, 4.5 ml), catalase (10 000 U/ml, 9 ml), copper sulfate (20 μM, 4.5 ml) and 4.5 ultrapure water. The standard incubation mixture (total volume, 950 μl) contained: 50 μL of compound or vehicle (dimethyl sulfoxide 2%); 700 μL of incubation buffer; 125 μl of plasma (or saline for blank reaction or standard curve); 75 μl of saline. The reaction mixture was placed in water bath, shaking at 37° C. and pre-incubated for 10 minutes. Tyramine (0.5 M) was added and incubation proceeded for 45 minutes. The reaction contents were exposed to air. A sample of enzyme preparation (with 125 μl of plasma) that had been added perchloric acid 2 M at the end of the pre-incubation period was used as blank. A blank for each of the tested compounds was used. For octopamine standard curve, perchloric acid 2 M was replaced by increasing concentrations of octopamine prepared in perchloric acid 2 M (0.5, 1, 2.5, 5, 7.5, 10, 15, 20 μg/ml, final concentration). The incubation was stopped by adding 200 μl of 2 M molar perchloric acid, and the mixture was centrifuged at 9000 g for 5 min. The supernatant fluid (800 μL) was transferred to a column (SPE cartridge ISOLUTE SCX-3, 100 mg) and centrifuged at 150 g for 2 min. The column was washed two more times with 0.5 ml of ultrapure water by centrifuging at 150 g for 2 min. The adsorbed octopamine was eluted twice with 0.3 ml of 4 M ammonium hydroxide by centrifuging at 150 g for 2 min. Octopamine in the eluate was then converted to p-hydroxybenzaldehyde by adding 200 μl of sodium periodate (2%) and incubating for 6 min. Excess periodate was than reduced by adding 200 μl of sodium metabisulfite (10%). Absorbance was measured at […] in a 96-well plate by use of a SpectraMAX plus 384 (Molecular Devices) with software SOFTmax® PRO Software 5.3 spectrophotometer. Absorbance was linear with octopamine concentration from 0.5 to 20 μg/ml. Dopamine beta hydroxylase activity is determined as nmol of octopamine formed/ml of plasma/hour and effect of compounds is presented as % control.
Results are reported in the table below (inside brackets) as activity in % of control at the inhibitor concentration tested.
Take `Cc1[nH]c(=S)n2c1C[C@H](c1c(F)c(F)cc(F)c1F)C2` [Example 5, (R)-1-methyl-6-(2,3,5,6-tetrafluorophenyl)-2,5,6,7-tetrahydro-3H-pyrrolo[1,2-c]-imidazole-3-thione]: the remaining activity at 0.1 µM was 57.3%.

For `Cc1[nH]c(=S)n2c1C[C@@H](c1c(F)c(F)cc(F)c1F)C2` [Example 6, (S)-1-methyl-6-(2,3,5,6-tetrafluorophenyl)-2,5,6,7-tetrahydro-3H-pyrrolo[1,2-c]imidazole-3-thione], the remaining activity at 0.1 µM stood at 74.1%.

Regarding `Cc1[nH]c(=S)n2c1[C@@H]1C[C@]1(c1cc(Cl)ccc1F)C2` [Example 8, (5aS,6aR)-5a-(5-chloro-2-fluorophenyl)-1-methyl-5,5a,6,6a-tetrahydrocyclopropa[3,4]pyrrolo[1,2-c]imidazole-3(2H)-thione], the remaining activity at 0.1 µM was found to be 38.3%.

With `Cc1[nH]c(=S)n2c1[C@@H]1C[C@]1(c1c(F)ccc(Cl)c1F)C2` [Example 14, (5aS,6aR)-5a-(3-chloro-2,6-difluorophenyl)-1-methyl-5,5a,6,6a-tetrahydrocyclopropa[3,4]pyrrolo[1,2-c]imidazole-3(2H)-thione], the remaining activity at 0.1 µM was 4.7%.

For `Cc1[nH]c(=S)n2c1C[C@H](c1c(F)ccc(Br)c1F)C2` [Example 15, (R)-6-(3-bromo-2,6-difluorophenyl)-1-methyl-2,5,6,7-tetrahydro-3H-pyrrolo[1,2-c]imidazole-3-thione], the remaining activity at 0.1 µM turned out to be 23.8%.

Take `Cc1[nH]c(=S)n2c1C[C@@H](c1c(F)ccc(Br)c1F)C2` [Example 16, (S)-6-(3-bromo-2,6-difluorophenyl)-1-methyl-2,5,6,7-tetrahydro-3H-pyrrolo[1,2-c]imidazole-3-thione]: the remaining activity at 0.1 µM is 12.1%.

`Cc1[nH]c(=S)n2c1[C@@H]1C[C@]1(c1cc(F)cc(Cl)c1)C2` [Example 17, (5aS,6aR)-5a-(3-chloro-5-fluorophenyl)-1-methyl-5,5a,6,6a-tetrahydrocyclopropa[3,4]pyrrolo[1,2-c]imidazole-3(2H)-thione]: the remaining activity at 0.1 µM stood at 49.9%.

On to `[2H]C([2H])([2H])c1[nH]c(=S)n2c1[C@@H]1C[C@]1(c1cc(Br)ccc1F)C2` [Example 18, (5aS,6aR)-5a-(5-bromo-2-fluorophenyl)-1-(methyl-d3)-5,5a,6,6a-tetrahydrocyclopropa[3,4]pyrrolo[1,2-c]imidazole-3(2H)-thione], for which the remaining activity at 0.1 µM amounted to 10%.

As for `Cc1[nH]c(=S)n2c1C[C@@H](c1cc(Br)ccc1F)C2` [Example 19, (S)-6-(5-bromo-2-fluorophenyl)-1-methyl-2,5,6,7-tetrahydro-3H-pyrrolo[1,2-c]imidazole-3-thione], the remaining activity at 0.1 µM came to 39.1%.

Turning to `Cc1[nH]c(=S)n2c1C[C@H](c1c(F)ccc(F)c1F)C2` [Example 20, (R)-1-methyl-6-(2,3,6-trifluorophenyl)-6,7-dihydro-2H-pyrrolo[1,2-c]imidazole-3(5H)-thione], the remaining activity at 0.1 µM was 27.7%.

In the case of `Cc1[nH]c(=S)n2c1C[C@H](c1cc(Br)ccc1F)C2` [Example 21, (R)-6-(5-bromo-2-fluorophenyl)-1-methyl-2,5,6,7-tetrahydro-3H-pyrrolo[1,2-c]imidazole-3-thione], the remaining activity at 0.1 µM was found to be 88.8%.

Consider `Cc1[nH]c(=S)n2c1C[C@H](c1c(F)cccc1F)C2` [Example 22, (R)-6-(2,6-difluorophenyl)-1-methyl-2,5,6,7-tetrahydro-3H-pyrrolo[1,2-c]imidazole-3-thione], for which the remaining activity at 0.1 µM is 0.5%.

In the case of `Cc1[nH]c(=S)n2c1C[C@@H](c1cc(Cl)ccc1F)C2` [Example 23, (S)-6-(5-chloro-2-fluorophenyl)-1-methyl-2,5,6,7-tetrahydro-3H-pyrrolo[1,2-c]imidazole-3-thione], the remaining activity at 0.1 µM is 67%.

The same assay, now with this note: read-out: DβH activity in % of Ctrl (0.1 μM), human plasma assay.
On to `Cc1[nH]c(=S)n2c1[C@@H]1C[C@]1(c1cc(Br)ccc1F)C2` [Example 13, (5aS,6aR)-5a-(5-bromo-2-fluorophenyl)-1-methyl-5,5a,6,6a-tetrahydrocyclopropa[3,4]pyrrolo[1,2-c]imidazole-3(2H)-thione], for which the remaining activity at 0.1 µM was 9.8%.
